Like-named read-outs stand apart in the source and are kept apart here.
Test: Tigecycline plasma PK and % F after PO enteric-coated capsule in dogs
Assay type: in vivo, Beagle dogs
Details: female, beagle, dog, plasma, po; for concentration at 60 min / concentration at 75 min / concentration at 90 min / concentration at 120 min / concentration at 150 min / concentration at 180 min / concentration at 210 min / concentration at 240 min / concentration at 0 hr / concentration at 0.3 hr / concentration at 0.7 hr / concentration at 1 hr: Tigecycline Plasma Concentration; for concentration at 60 min / concentration at 75 min / concentration at 90 min / concentration at 120 min / concentration at 150 min / concentration at 180 min / concentration at 210 min / concentration at 240 min: SC424; for bioavailability: read-out: % F; for Tmax: read-out: Tmax (converted); for concentration at 0 hr / concentration at 0.3 hr / concentration at 0.7 hr / concentration at 1 hr: PO 30 mg unformulated enteric-coated capsule
Method: Adult beagle dogs weighing approximately 9 to 15 kg were used in the study. […] Room temperature was set to be maintained between approximately 20±5° C. Relative humidity was monitored but not controlled.
TEKLAD™ Certified Canine Diet was provided once daily in amounts (˜400 grams) appropriate for the size and age of the animals. Tap water was available ad libitum via automatic watering device or water bowls.
Oral dosing of enteric-coated capsules was accomplished by administering them to the back of the dog's mouth, followed by a chase of 5 mL water to ensure swallowing.
Water was provided ad libitum. […] Subsequently, each group of animals was dosed based on the protocol, i.e. either IV, or PO by capsule.
Minocycline (VWR international) was used as an internal standard. Sample processing/clean-up of plasma samples was carried out offline by protein precipitation with acidified acetonitrile using 0.5% trifluoroacetic acid (TFA).
The HPLC system consisted of Shimadzu SIL-HTc HPLC system equipped with dual Shimadzu LC-10ADvp isopumps, a Shimadzu CTO-10ASvp column temperature controller and a Shimadzu SPD-10Avp variable wavelength detector. […] Mobile phase A consisted of 23 mM phosphate buffer pH 2.5 with 4 mM 1-octanesulfonic acid, while mobile phase B consisting of 90% acetonitrile, 10% water, with 2 mM 1-octanesulfonic acid. […] The total runtime was 18 minutes per sample. The mobile phase flow rate was 1.2 mL/min. Detection was performed using the SPD-10Avp variable wavelength detector set at 350 nm, with a sensitivity of 0.001 aufs.
The samples were then centrifuged under refrigeration at 13 k rpm for 5 minutes. The supernatant was taken and the liquid removed to dryness under nitrogen in a turbovap. The dried extract was reconstituted in 60 μL of mobile phase A and the suspension was further centrifuged at 5 k rpm for 5 minutes to pellet any insoluble matter. The resulting supernatant was then injected onto the LC.
The unknown concentration in dog plasma samples was determined by interpolation of the peak area ratios of analyte:internal standard versus the ratio of their nominal concentrations into the regression line obtained from calibration standards spiked in pooled dog plasma. No regression weighting was used for the calculations. […] The calibration curve covered the range of 0.05 μg/mL to 5 μg/mL. […]
The capsules were enterically coated using a standard preclinical protocol to 10% weight gain. Two studies were conducted.

[1] = 15 mg, PO 15 mg enteric-coated capsule with 500 mg CA and 100 mg LLC, mean
[2] = 15 mg, PO 15 mg unformulated enteric-coated capsule, individual dogs
[3] = 15 mg, PO 15 mg unformulated enteric-coated capsule, mean
[4] = 30 mg, 30 mg Formulated (500 mg CA, 100 mg LLC) enteric coated capsule, Study 2 (SC430), mean (% CV) excluding animal 5256

`CN(C)c1cc(NC(=O)CNC(C)(C)C)c(O)c2c1C[C@H]1C[C@H]3[C@H](N(C)C)C(O)=C(C(N)=O)C(=O)[C@@]3(O)C(O)=C1C2=O` [Tigecycline] showed a concentration at 60 min [1] of 18.7 ng/mL, a concentration at 60 min [2] of 0 ng/mL and a concentration at 60 min [3] of 0 ng/mL. It also gave a concentration at 75 min [1] of 46.1 ng/mL, a concentration at 75 min [2] of 0 ng/mL and a concentration at 75 min [3] of 0 ng/mL. For the same compound, the concentration at 90 min [1] was 53.8 ng/mL, the concentration at 90 min [2] was 0 ng/mL and the concentration at 90 min [3] was 0 ng/mL. For the same compound, the concentration at 120 min [1] was 51.5 ng/mL, the concentration at 120 min [2] was 0 ng/mL and the concentration at 120 min [3] was 0 ng/mL. It also gave a concentration at 150 min [1] of 41.7 ng/mL, a concentration at 150 min [2] of 0 ng/mL and a concentration at 150 min [3] of 0 ng/mL. It also gave a concentration at 180 min [1] of 37.4 ng/mL, a concentration at 180 min [2] of 0 ng/mL and a concentration at 180 min [3] of 0 ng/mL. The concentration at 210 min [1] was 36.3 ng/mL, the concentration at 210 min [2] was 0 ng/mL and the concentration at 210 min [3] was 0 ng/mL. It also gave a concentration at 240 min [1] of 35.2 ng/mL, a concentration at 240 min [2] of 0 ng/mL and a concentration at 240 min [3] of 0 ng/mL. It also gave a Cmax (15 mg, target dose 15 mg, enterically coated capsule, read-out: Observed Mean Cmax) of 75.5 ng/mL, an AUC(0-t) (15 mg, target dose 15 mg, enterically coated capsule, time scale adjusted to 4 hours, read-out: Observed AUC(0-t)) of 133 ng·h/mL and a bioavailability [4] of 14.9%. It also gave an AUC(0-t) (30 mg, 30 mg Formulated (500 mg CA, 100 mg LLC) enteric coated capsule, Study 2 (SC430), mean (% CV) excluding animal 5256, read-out: AUC(0-t)) of 367 ng·h/mL, a Cmax (30 mg, 30 mg Formulated (500 mg CA, 100 mg LLC) enteric coated capsule, Study 2 (SC430), mean (% CV) excluding animal 5256, read-out: Cmax) of 121 ng/mL and a Tmax [4] of 1.58 h. It also gave a bioavailability (30 mg, 30 mg Unformulated enteric coated capsule, Study 2 (SC430)) of 0%, an AUC(0-t) (30 mg, PO 30 mg enteric-coated capsule with 500 mg CA and 100 mg LLC ([…]), SC430, mean excluding animal 5256, read-out: AUC(0-t)) of 367 ng·h/mL and a Cmax (30 mg, PO 30 mg enteric-coated capsule with 500 mg CA and 100 mg LLC ([…]), SC430, mean excluding animal 5256, read-out: Cmax) of 121 ng/mL. The Tmax (30 mg, PO 30 mg enteric-coated capsule with 500 mg CA and 100 mg LLC ([…]), SC430, mean excluding animal 5256) was 1.6 h, the bioavailability (30 mg, PO 30 mg enteric-coated capsule with 500 mg CA and 100 mg LLC, SC430, calculated from IV PK data of SC431, mean excluding animal 5256) was 14.9% and the bioavailability (30 mg, PO 30 mg unformulated enteric-coated capsule ([…]), SC430, individual dogs) was 0%. It also gave a bioavailability (30 mg, PO 30 mg unformulated enteric-coated capsule ([…]), SC430, mean) of 0%, a Tmax (30 mg, Study 2 (SC430), 30 mg Formulated enteric coated capsule (500 mg citric acid, 100 mg LLC), oral, dogs, N=4 excluding animal 5256, mean (% CV)) of 1.58 h and a bioavailability (30 mg, Study 2 (SC430), 30 mg Unformulated enteric coated capsule (microcrystalline cellulose filler), oral, dogs, N=3, based on that study's IV arm) of 0%. It also gave a concentration at 0 hr (30 mg, SC430, individual dogs) of 0 ng/mL, a concentration at 0 hr (30 mg, SC430, mean) of 0 ng/mL and a concentration at 0.3 hr (30 mg, SC430, individual dogs) of 0 ng/mL. The concentration at 0.3 hr (30 mg, SC430, mean) was 0 ng/mL, the concentration at 0.7 hr (30 mg, SC430, individual dogs) was 0 ng/mL and the concentration at 0.7 hr (30 mg, SC430, mean) was 0 ng/mL. For the same compound, the concentration at 1 hr (30 mg, SC430, individual dogs) was 0 ng/mL and the concentration at 1 hr (30 mg, SC430, mean) was 0 ng/mL.

From patent US9526785B2, “Pharmaceuticals for oral delivery” (Enteris BioPharma, Inc., priority 2013, dated 2016)
